Laboratory results: ChEMBL document CHEMBL1201862, “PubChem BioAssay data set” (2004)
Calls of active or inactive are those of the source.

Experiments:
[1] = Luminescence Cell-Based Dose Response HTS to Identify Activators of Luciferase Translation or Activity in H4 […] Cells. [Related pubchem assays: 1829 (Project Summary), 1814 (Primary HTS)]; format: functional
[2] = target: Cyclin-dependent kinase 5/CDK5 activator 1 (Homo sapiens, UniProt Q00535); assay: blockade of human CDK5 activity – biochemical, cherry-picked samples, set 2, dose response (AID 504545)
[3] = luciferase reporter signal reduction – luminescence, H4-C neuroglioblastoma cells, dose response (AID 2458); format: functional, cell-based;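 also: H4 neuroglioblastoma cells stably carrying a luciferase reporter gene fusion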
[4] = system: Streptococcus; assay: GAS UMAA2166 growth inhibition – luminescence, BacTiterGlo, counter-screen for streptokinase expression inhibitor project, dose response (AID 1915); format: functional, organism-based;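 also: potency for reduction of bacterial viability or growth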
[5] = luciferase reporter signal suppression in cells – H4 neuroglioma cells, luminescence, dose response (AID 1990); format: functional, cell-based
[6] = target: T1, DNA repair and recombination protein RAD54-like (Homo sapiens, UniProt Q92698); assay: RAD54 Holliday junction migration blockers – biochemical, fluorescence, cherry-picked samples, dose series, confirmation (AID 651657); format: functional
T1 sequence (Q92698 whole entry): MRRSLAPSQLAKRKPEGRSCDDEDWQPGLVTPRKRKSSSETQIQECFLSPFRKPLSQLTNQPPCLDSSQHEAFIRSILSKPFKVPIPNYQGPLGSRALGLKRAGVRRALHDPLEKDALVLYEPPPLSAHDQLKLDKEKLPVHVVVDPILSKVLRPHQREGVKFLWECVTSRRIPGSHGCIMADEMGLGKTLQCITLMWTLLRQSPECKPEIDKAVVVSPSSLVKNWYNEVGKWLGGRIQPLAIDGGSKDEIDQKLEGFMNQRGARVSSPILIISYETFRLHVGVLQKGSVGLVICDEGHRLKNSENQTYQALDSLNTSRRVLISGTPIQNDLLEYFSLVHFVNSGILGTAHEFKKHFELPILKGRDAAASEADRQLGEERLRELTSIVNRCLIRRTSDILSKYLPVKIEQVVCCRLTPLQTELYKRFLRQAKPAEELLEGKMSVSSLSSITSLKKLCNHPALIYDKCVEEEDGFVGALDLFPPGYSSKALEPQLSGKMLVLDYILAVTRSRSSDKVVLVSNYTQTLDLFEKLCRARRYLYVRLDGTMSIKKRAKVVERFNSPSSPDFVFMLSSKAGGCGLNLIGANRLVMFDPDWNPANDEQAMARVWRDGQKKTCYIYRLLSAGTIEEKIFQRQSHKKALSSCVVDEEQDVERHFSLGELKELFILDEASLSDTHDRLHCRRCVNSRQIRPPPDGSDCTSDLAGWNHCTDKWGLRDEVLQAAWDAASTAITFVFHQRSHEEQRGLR

[7] = cells; format: functional
[8] = THP-1 cell cytotoxicity, dose response, cytotoxicity control for non-replicating M. tuberculosis project (AID 489025); format: functional
[9] = Vero E6 cell cytotoxicity, dose response, cytotoxicity control for non-replicating M. tuberculosis project, secondary assay (AID 492998); format: functional, VeroE6; conditions: Vero C1008
[10] = HepG2 cell cytotoxicity, dose response, cytotoxicity control for non-replicating M. tuberculosis project (AID 489018); format: functional; conditions: Mycobacterium tuberculosis
[11] = system: Streptococcus sp. 'group A'; assay: Streptococcus pyogenes SK(-)GAS viability under kanamycin – luminescence, BacTiterGlo, confirmation, counter-screen for streptokinase expression inhibitor project, dose response (AID 1900); format: functional, organism-based
[12] = alpha-synuclein stem-loop luciferase translation blockers – H4 neuroglioma cells, luminescence, confirmation (AID 1988); format: functional, cell-based
[13] = cells; format: functional, cell-based
[14] = HEK-293T viability loss after treatment – luminescence, T-cell screen hits, cytotoxicity control for TCR NF-kB inhibitor project, dose response (AID 489026); format: functional, cell-based;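 also: cells exposed to compound about 14 hours before the viability readout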
[15] = target: T2, Heat shock factor protein 1 (Mus musculus, UniProt P38532); assay: enhancement of HSF1-driven luciferase signal – cell-based, NIH3T3, luminescence, dose retest, confirmation (AID 435004); format: functional;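 also: stress induced by proteasome inhibitor MG132 added 30 min after compound; luciferase reporter driven by HSF1 response element in NIH3T3 cells; actives raise luminescence as potentiators of the MG132 stress response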
T2 sequence (P38532 whole entry): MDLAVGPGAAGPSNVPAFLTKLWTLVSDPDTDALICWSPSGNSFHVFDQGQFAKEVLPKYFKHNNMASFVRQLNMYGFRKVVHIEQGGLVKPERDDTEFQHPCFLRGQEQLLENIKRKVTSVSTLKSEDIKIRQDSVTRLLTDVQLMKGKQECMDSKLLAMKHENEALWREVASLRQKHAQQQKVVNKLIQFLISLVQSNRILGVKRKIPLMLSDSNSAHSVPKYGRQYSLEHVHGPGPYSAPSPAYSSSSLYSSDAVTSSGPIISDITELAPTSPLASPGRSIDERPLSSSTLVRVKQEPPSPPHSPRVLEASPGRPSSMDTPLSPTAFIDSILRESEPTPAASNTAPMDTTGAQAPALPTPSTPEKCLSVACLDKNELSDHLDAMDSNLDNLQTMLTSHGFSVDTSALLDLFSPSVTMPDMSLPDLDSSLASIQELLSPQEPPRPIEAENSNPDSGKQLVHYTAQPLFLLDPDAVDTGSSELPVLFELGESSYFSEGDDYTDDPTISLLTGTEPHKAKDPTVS

[16] = alpha-synuclein stem-loop translation blockers – luminescence, H4 neuroglioblastoma cells, dose confirmation, confirmation (AID 2454); format: functional, cell-based;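 also: H4 neuroglioblastoma cells carrying an alpha-synuclein 5'UTR luciferase reporter; potency for inhibition of the luciferase signal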
[17] = target: T3, Corticotropin-releasing factor receptor 2/Corticotropin-releasing factor-binding protein (Homo sapiens, UniProt P24387+Q13324); assay: activators of CRF receptor 2 with binding protein – uHTS hits, confirmation (AID 602473); format: functional; conditions: read-out: EC50_Mean
T3 sequence (Q13324 whole entry): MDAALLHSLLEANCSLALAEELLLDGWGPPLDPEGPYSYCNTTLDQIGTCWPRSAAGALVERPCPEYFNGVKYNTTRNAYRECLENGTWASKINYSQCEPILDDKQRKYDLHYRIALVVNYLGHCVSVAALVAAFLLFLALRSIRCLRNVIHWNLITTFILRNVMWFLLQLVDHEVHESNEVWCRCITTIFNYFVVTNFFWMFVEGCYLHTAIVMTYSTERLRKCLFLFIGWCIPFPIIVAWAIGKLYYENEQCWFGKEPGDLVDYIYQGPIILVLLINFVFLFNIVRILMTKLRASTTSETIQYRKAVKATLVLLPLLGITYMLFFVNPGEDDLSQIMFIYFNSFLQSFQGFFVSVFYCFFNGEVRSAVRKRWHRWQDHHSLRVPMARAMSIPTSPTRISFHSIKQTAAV
T3 sequence (P24387 whole entry): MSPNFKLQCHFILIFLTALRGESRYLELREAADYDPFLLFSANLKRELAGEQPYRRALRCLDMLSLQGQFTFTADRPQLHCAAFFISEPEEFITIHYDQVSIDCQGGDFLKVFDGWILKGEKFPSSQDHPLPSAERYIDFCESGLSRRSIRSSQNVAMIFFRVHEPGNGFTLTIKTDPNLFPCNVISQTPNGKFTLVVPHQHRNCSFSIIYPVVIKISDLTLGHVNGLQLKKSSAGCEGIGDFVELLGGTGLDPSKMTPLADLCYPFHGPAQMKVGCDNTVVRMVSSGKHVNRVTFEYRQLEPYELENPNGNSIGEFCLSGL

[18] = target: Nucleotide-binding oligomerization domain-containing protein 2 (Homo sapiens, UniProt Q9HC29); assay: PubChem AID 2334; format: functional
[19] = target: Tumor necrosis factor (Homo sapiens, UniProt P01375); assay: analog potency on TNFa NF-kB signaling – cell-based, revised, SAR follow-up (AID 2337); format: functional
[20] = target: T4, Nucleotide-binding oligomerization domain-containing protein 1 (Homo sapiens, UniProt Q9Y239); assay: blockers of NOD1 pathway activity – revised, SAR follow-up (AID 2333); format: functional
T4 sequence (Q9Y239 whole entry): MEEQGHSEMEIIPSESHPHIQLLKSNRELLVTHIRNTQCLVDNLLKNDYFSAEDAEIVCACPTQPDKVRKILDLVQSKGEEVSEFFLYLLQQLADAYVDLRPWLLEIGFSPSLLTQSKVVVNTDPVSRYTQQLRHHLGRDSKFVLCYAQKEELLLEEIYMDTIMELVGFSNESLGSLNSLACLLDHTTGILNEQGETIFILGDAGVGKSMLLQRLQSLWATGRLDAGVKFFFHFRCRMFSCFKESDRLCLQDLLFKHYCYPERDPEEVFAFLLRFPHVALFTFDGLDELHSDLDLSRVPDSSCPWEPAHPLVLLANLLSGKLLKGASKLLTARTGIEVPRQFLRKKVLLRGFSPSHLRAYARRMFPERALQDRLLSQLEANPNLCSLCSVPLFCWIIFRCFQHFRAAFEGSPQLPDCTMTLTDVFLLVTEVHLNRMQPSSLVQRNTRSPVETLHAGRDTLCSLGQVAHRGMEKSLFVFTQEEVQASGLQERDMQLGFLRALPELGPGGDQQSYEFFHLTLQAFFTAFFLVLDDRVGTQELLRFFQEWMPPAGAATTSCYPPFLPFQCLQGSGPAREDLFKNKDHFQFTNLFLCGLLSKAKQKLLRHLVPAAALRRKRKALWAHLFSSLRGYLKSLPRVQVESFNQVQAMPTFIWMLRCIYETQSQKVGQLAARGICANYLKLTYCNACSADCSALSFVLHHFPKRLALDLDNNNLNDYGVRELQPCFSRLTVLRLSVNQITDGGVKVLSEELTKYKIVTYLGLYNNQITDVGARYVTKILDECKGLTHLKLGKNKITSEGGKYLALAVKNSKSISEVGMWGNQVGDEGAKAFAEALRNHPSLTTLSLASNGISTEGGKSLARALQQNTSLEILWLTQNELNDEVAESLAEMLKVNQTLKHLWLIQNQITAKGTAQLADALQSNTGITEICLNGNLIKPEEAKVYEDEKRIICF

[21] = target: T3, Corticotropin-releasing factor receptor 2/Corticotropin-releasing factor-binding protein; assay: Dose Response confirmation of uHTS hits for small molecule antagonists of the CRF-binding protein and CRF-R2 receptor complex.; format: functional; conditions: read-out: IC50_Mean
[22] = target: T5, Streptokinase A (Streptococcus pyogenes serotype M1, UniProt P10520); assay: viability-normalized secreted streptokinase activity reduction – plasminogen activation absorbance, OD405, dose response (AID 1914); format: functional, Streptococcus pyogenes M1 GAS;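 also: secreted streptokinase activity via plasminogen activation per viability signal from cell pellet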
T5 sequence (P10520 whole entry): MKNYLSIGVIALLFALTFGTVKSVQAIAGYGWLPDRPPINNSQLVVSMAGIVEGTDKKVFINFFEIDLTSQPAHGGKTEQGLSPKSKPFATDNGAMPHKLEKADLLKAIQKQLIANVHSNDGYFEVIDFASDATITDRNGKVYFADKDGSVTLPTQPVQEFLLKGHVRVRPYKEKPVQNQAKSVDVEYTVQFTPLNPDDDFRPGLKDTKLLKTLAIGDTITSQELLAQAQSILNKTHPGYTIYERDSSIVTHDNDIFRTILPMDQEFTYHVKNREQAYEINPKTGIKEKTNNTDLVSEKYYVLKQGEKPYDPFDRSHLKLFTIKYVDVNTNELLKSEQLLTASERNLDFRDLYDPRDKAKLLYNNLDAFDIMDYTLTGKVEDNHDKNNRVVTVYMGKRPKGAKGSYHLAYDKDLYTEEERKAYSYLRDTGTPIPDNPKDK

[23] = target: DNA dC->dU-editing enzyme APOBEC-3G (Homo sapiens, UniProt Q9HC16); assay: Dose Response confirmation of small molecule APOBEC3G DNA Deaminase Inhibitors via a fluorescence-based single-stranded DNA deaminase assay. [Related pubchem assays (depositor defined):AID493012, AID493028]; format: functional
[24] = target: Neuropeptides B/W receptor type 1 (Homo sapiens, UniProt P48145); assay: Fluorescence-based dose response cell-based high throughput screening assay to identify antagonists of the G-protein coupled receptor 7 (GPR7). [Related pubchem assays: 1952 (Screening assay (GPR7 antagonists).), 1880 (Summary AID.)]; format: functional
[25] = target: Melanin-concentrating hormone receptor 1 (Homo sapiens, UniProt Q99705); assay: Fluorescence-based counterscreen for antagonists of the G-protein coupled receptor 7 (GPR7): cell-based high throughput dose response assay to identify antagonists of the melanin-concentrating hormone receptor 1 (MCHR1).; format: functional
[26] = Luminescence Cell-Based Dose Retest to Confirm Inhibitors of Cancer Stem Cells. [Related pubchem assays (depositor defined):AID2717, AID2721]; format: functional; conditions: Homo sapiens
[27] = target: X-box-binding protein 1 (Homo sapiens, UniProt P17861); format: functional, Cricetulus griseus;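 also: confirmatory dose-response counter-screen serving a CHOP assay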
Sequence of X-box-binding protein 1 (P17861 whole entry): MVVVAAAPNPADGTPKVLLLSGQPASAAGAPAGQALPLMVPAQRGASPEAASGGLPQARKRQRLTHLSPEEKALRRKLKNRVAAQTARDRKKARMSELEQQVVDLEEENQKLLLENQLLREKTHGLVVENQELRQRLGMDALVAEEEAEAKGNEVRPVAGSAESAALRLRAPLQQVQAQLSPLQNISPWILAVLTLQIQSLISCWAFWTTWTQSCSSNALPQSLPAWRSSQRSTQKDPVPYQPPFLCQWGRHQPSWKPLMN

Sequence of Cyclin-dependent kinase 5/CDK5 activator 1 (Q00535 whole entry, the tested form may be a part): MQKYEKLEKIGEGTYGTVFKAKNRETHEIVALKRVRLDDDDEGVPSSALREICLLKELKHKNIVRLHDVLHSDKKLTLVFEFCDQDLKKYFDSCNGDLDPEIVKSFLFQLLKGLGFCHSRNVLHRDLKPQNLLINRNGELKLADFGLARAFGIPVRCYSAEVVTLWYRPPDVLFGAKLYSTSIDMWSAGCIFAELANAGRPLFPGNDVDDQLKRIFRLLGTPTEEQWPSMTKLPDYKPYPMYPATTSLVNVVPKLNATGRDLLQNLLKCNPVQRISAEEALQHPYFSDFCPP
Sequence of Cyclin-dependent kinase 5/CDK5 activator 1 (Q15078 whole entry, further chain, the tested form may be a part): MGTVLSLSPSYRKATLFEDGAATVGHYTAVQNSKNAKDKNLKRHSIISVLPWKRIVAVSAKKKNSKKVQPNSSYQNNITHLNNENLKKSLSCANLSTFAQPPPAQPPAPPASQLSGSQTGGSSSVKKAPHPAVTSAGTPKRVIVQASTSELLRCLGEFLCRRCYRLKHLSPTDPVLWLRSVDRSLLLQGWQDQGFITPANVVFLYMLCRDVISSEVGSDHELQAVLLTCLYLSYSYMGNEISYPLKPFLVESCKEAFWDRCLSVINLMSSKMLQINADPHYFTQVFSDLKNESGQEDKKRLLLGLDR
Sequence of DNA dC->dU-editing enzyme APOBEC-3G (Q9HC16 whole entry): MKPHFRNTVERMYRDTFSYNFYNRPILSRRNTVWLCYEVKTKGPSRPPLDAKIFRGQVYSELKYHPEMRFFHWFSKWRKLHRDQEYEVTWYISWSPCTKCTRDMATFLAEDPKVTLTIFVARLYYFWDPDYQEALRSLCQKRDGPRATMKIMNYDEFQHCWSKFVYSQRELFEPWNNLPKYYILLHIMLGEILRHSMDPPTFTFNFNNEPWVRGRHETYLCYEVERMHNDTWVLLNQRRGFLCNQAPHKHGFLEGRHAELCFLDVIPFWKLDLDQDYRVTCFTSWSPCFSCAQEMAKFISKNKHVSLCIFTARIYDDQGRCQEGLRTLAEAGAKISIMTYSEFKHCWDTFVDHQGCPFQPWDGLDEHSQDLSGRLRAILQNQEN
Sequence of Tumor necrosis factor (P01375 whole entry, the tested form may be a part): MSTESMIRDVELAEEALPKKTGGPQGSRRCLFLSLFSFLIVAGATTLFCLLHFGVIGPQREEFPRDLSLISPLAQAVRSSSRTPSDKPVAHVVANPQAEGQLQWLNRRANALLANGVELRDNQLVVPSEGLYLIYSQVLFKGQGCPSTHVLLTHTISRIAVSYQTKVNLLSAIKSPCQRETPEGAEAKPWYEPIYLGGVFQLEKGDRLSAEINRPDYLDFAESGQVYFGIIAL
Sequence of Nucleotide-binding oligomerization domain-containing protein 2 (Q9HC29 whole entry, the tested form may be a part): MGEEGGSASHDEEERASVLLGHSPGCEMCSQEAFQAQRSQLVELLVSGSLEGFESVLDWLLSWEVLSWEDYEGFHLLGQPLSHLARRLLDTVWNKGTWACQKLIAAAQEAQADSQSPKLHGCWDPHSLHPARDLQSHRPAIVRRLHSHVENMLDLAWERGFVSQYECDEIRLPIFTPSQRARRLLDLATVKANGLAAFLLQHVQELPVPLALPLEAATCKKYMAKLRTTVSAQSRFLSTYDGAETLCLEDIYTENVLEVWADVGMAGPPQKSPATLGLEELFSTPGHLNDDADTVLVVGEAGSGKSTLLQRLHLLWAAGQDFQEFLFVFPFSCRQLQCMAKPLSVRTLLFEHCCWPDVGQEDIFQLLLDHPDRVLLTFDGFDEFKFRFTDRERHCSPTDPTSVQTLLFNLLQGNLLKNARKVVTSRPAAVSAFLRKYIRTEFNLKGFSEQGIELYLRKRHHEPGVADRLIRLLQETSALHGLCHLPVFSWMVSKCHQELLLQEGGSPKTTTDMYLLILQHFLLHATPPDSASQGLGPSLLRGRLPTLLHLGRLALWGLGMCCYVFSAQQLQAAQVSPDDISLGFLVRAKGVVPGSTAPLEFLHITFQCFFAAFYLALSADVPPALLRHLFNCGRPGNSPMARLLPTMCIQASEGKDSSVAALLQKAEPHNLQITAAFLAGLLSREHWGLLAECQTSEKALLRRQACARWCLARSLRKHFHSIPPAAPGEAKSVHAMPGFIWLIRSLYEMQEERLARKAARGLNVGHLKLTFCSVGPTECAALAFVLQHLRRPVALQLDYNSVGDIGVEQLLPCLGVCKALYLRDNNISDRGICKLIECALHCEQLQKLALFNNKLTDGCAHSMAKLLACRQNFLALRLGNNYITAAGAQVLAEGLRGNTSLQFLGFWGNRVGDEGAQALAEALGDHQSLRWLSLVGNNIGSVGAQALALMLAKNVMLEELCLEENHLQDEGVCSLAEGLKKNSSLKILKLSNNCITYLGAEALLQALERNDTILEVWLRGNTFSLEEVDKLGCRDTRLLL
Sequence of Neuropeptides B/W receptor type 1 (P48145 whole entry): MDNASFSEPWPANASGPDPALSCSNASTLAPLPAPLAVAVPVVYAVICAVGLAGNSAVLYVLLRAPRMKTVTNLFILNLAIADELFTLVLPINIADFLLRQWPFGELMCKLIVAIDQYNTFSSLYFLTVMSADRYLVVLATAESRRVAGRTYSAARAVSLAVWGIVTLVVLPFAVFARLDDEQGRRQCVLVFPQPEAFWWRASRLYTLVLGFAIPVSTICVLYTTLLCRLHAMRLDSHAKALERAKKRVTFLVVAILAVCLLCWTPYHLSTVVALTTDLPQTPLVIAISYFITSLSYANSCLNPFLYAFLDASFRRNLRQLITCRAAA
Sequence of Melanin-concentrating hormone receptor 1 (Q99705 whole entry): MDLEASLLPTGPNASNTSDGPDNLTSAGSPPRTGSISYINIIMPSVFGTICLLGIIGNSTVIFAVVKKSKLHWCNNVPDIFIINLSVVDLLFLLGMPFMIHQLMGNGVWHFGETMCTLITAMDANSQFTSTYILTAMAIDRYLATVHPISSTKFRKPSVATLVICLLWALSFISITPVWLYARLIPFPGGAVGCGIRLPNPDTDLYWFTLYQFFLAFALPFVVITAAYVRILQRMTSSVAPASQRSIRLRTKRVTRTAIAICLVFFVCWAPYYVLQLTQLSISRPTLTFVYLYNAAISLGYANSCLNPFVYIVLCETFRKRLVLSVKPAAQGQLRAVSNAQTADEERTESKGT

Nc1nc(Nc2ccccc2F)sc1C(=O)c1ccccc1
EC50 [1]: 0.159 µM (active) | AC50 [2]: 60 µM (active)

COC(=O)c1c(NC(=O)c2ccc([N+](=O)[O-])o2)sc2c1CCN(C(C)C)C2
EC50 [3]: 1.29 µM (active) | EC50 [4]: 7.32 µM (active) | EC50 [5]: > 120 µM (not active) | AC50 [6]: 43.4 µM (active) | IC50 [7]: 0.65 µM (active) | CC50 [8]: 1.5 µM (active) | CC50 [9]: 0.37 µM (active) | CC50 [10]: 6.72 µM (active) | EC50 [11]: 4.11 µM (active) | EC50 [12]: < 0.1 µM (active) | EC50 [13]: 11.8 µM (active) | IC50 [14]: > 80 µM (inactive) | EC50 [15]: 26 µM (active) | EC50 [16]: 1.52 µM (active)

Cc1ccc(SCc2cc(=O)[nH]c(SCC(=O)Nc3cc(Cl)ccc3Cl)n2)cc1
EC50 [17]: > 53 µM (inactive) | IC50 [18]: 9.95 µM (active) | IC50 [19]: 8.65 µM (active) | IC50 [20]: 7.37 µM (active) | IC50 [21]: 5.65 µM (active) | EC50 [22]: 42.6 µM (inconclusive)

Cc1cccc(Nc2nc(N)c([N+](=O)[O-])c(NCCO)n2)c1
AC50 [2]: 15.2 µM (active)

CC(=O)c1sc2nsc(SCCN3CCOCC3)c2c1N
IC50 [23]: 34.4 µM (active)

O=C(NC1CCCCCCC1)C1c2ccccc2C(=O)N1Cc1cccs1 (stereo not drawn)
IC50 [24]: > 43.8 µM (not active) | IC50 [25]: 15.9 µM (not active)

Cc1[nH]c2ccccc2c1/C=N/NC(=O)C1CC1(c1ccccc1)c1ccccc1 (stereo not drawn)
AC50 [26]: 3.79 µM (active) | Absolute IC50 (XBP1) [27]: 10 µM
